From patent US20250122190A1, “HALOGEN-SUBSTITUTED PYRIDAZINONE COMPOUND AND APPLICATION THEREOF” (MEDSHINE DISCOVERY INC., priority 2021, published 2025)

Tested on: rat models of hypertensive renal disease
Experiment: Pharmacodynamic study in DOCA-NaCl induced hypertensive renal disease model
Assay type: in vivo, male SD rats
Description: PD and pharmacodynamic studies on the compounds of the present disclosure in male SD rat models of hypertension induced with deoxycorticosterone acetate-sodium chloride (DOCA-NaCl).
Prior to commencing the procedure, 7-8 weeks old male SD rats were allowed one week acclimatization. On the day of surgery, the table of the surgical area was disinfected with a disinfectant, and the rats were anesthetized with 2%-5% isoflurane and fixed on the table. The abdominal hair was removed and the surgical skin was disinfected. The skin and abdominal wall were cut open to expose the right kidney. The arteries and veins near the renal hilum were ligated. After it was confirmed that there were no bleeding points, the renal blood vessels and surrounding ligaments were bluntly separated and the right kidney was removed. After it was confirmed that there were no bleeding points, the abdominal wall muscle and skin were sutured. After the rats woke up, they were returned to the cage and observed. The rats were injected subcutaneously with meloxicam injection once a day for 3 consecutive days for pain relief.
One week after unilateral kidney removal, the animals were randomly divided into vehicle group, low dose group and high dose group according to body weight/blood pressure. The drinking water of animals in all groups was changed to an aqueous solution containing 1% sodium chloride+0.2% potassium chloride. […]

Q: With `O=c1[nH]ncc(N2CCc3c(ncnc3Sc3ccc(F)cc3C(F)(F)F)C2)c1Cl` [Compound WX002] as the compound, how does the urinary albumin level (30 mg/kg and 60 mg/kg intragastrically once a day for 28 days, vs vehicle control group) read?
A: significantly reduce

Q: And the “expression of urinary Rac1” value (low and high dose, intragastrically once a day for 28 days, vs vehicle group)?
A: dose-dependently reduce
